According to patent publication US9650399B2, “Salicylic acid derivatives, pharmaceutically acceptable salt thereof, composition thereof and method of use thereof” (The Governing Council of the University of Toronto, priority 2012, dated 2017):
“Also recorded” adds a separate entry of the source. Read-outs that look alike come from different tables or passages of the source.

Tests used:
[1] = test system: BTSC30M; assay: alamarBlue cell viability, BTSC 30M; format: cell-based, human; details: Homo sapiens
How it was run: (§1)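 Patient-derived GBM brain tumour stem cells, dissociated spheres seeded at 1500 cells/96-well, or 3000 cells/96-well in one setup. Drug or DMSO vehicle added one day after plating. Viability read by alamarBlue after 72 hrs, triplicate wells.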

[2] = test system: BTSC68EF; assay: alamarBlue cell viability, BTSC 68EF; format: cell-based, human; details: Homo sapiens, read-out: 68EF IC50 (μM)
How it was run: as §1

[3] = test system: 147EF; assay: alamarBlue cell viability, BTSC 147EF; format: cell-based, human; details: Homo sapiens, Table 4 library screen
Excerpt: BTSC spheres were dissociated to single cells with the enzyme Accumax (Innovative Technologies), seeded at 1500 cells/96-well and treated with drug or vehicle (DMSO) one day after plating. Cytotoxicity studies were repeated independently at Sickkids Hospital using BTSC lines 25M, 67EF, 73EF, 84EF and 127EF. BTSC spheres were dissociated to single cells as above and plated in 96 well plates in triplicate at 3000 cells/96-well. In both sets of experiments drugs were used as serial dilutions within the range of 5 μM to 100 nM in the first set and 25 μM to 10 nM. Cell viability following drug treatment was assessed three days later using the ALAMARBLUE™ assay (Invitrogen) according to the manufacturer's instructions. All culture experiments were performed in triplicate with a minimum of three wells per condition. Table 4 below illustrates a screen of the library against a number of BTSCs using ALAMARBLUE™ assay.

[4] = test system: BTSCs; assay: alamarBlue cytotoxicity across BTSC lines; format: cell-based, human; details: Homo sapiens; for EC50: read-out: EC50s across all 8 BTSCs evaluated; for IC50: read-out: IC50 values of the top four ranked compounds against BTSCs
Procedure: First, the library was screened for biological activity against a set of three representative GBM BTSCs derived from GBM patients, including the very aggressive GBM BTSC lines, BTSC73M, BTSC30M, BTSC68EF. Dissociated BTSC spheres were seeded at 1500 cells/96-well and treated with drug compound or vehicle (DMSO) one day after plating. Cell viability following drug treatment was assessed after 72 hrs using the ALAMARBLUE™ assay (Invitrogen) according to the manufacturer's instructions. All culture experiments were performed in triplicate with a minimum of three wells per condition.
BTSC spheres were dissociated to single cells with the enzyme Accumax (Innovative Technologies), seeded at 1500 cells/96-well and treated with drug or vehicle (DMSO) one day after plating. […] BTSC spheres were dissociated to single cells as above and plated in 96 well plates in triplicate at 3000 cells/96-well. […] Cell viability following drug treatment was assessed three days later using the ALAMARBLUE™ assay (Invitrogen) according to the manufacturer's instructions. All culture experiments were performed in triplicate with a minimum of three wells per condition.

[5] = test system: normal human fetal astrocytes (HF 2003, HF 2006, HF 2009, HF 2013); assay: toxicity in normal human fetal astrocytes; format: cell-based; details: concentrations of up to 5 μM
Procedure: Given the nM cytoxicity, these compounds were assayed for biological effects in healthy cells.
GBM BTSCs were cultured from a series of tumor specimens obtained following informed consent from adult GBM patients during their operative procedure as previously described (Kelly et al, Stem Cells 2009) and approved by the University of Calgary Ethics Review Board. Briefly, BTSC cultures were initiated in serum-free defined culture medium (SFM) and gave rise to nonadherent spheres after 7 to 21 days in culture. Primary tumor spheres were expanded for several passages and then cryopreserved in 10% DMSO (Sigma Aldrich) in serum-free defined medium until use in experiments. Human fetal neural stem cells were also cultured as previously described and induced to differentiate into astrocytes by addition of 10% fetal bovine serum and removal of EGF, FGF-2 and heparan sulfate.

[6] = target: T1, AKT1 (Homo sapiens, UniProt P31749); assay: HotSpot radiometric kinase assay, AKT1; format: biochemical; details: 5 uM compound, 10 μM ATP, duplicate (Data 1, Data 2); for remaining activity at 5 µM: read-out: % Enzyme activity relative to DMSO (control), AKT1
T1 construct: purchased Reaction Biology Corporation
T1 sequence (P31749 whole entry): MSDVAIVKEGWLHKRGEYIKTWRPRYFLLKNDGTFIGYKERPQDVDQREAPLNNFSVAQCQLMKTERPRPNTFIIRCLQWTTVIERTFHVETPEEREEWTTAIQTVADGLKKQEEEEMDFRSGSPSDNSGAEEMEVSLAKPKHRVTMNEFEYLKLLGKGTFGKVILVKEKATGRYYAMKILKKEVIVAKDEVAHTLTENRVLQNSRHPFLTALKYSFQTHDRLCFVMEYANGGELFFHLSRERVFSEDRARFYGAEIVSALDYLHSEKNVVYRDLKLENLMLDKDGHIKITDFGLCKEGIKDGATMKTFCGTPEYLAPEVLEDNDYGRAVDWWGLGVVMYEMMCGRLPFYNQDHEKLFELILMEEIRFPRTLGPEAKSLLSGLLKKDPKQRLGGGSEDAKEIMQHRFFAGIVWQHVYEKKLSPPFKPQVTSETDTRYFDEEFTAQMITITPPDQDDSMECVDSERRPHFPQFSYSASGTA

[7] = target: T2, ERK1 (Homo sapiens, UniProt P27361); assay: HotSpot radiometric kinase assay, ERK1; format: biochemical; details: 5 uM compound, 10 μM ATP, duplicate (Data 1, Data 2); for remaining activity at 5 µM: read-out: % Enzyme activity relative to DMSO (control), ERK1
T2 construct: purchased Reaction Biology Corporation
T2 sequence (P27361 whole entry): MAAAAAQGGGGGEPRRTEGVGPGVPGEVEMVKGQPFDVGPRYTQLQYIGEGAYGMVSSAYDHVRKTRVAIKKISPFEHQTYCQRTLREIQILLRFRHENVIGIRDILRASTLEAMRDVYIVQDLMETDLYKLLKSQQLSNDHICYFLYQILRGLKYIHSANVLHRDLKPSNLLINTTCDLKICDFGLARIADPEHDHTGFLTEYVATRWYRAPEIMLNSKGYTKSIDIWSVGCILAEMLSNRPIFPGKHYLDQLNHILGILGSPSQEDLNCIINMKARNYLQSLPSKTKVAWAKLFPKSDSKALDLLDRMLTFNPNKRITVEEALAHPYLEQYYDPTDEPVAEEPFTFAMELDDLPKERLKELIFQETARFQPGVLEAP

[8] = target: T3, c-Src (Homo sapiens, UniProt P12931); assay: HotSpot radiometric kinase assay, c-Src; format: biochemical; details: 5 uM compound, 10 μM ATP, duplicate (Data 1, Data 2); for remaining activity at 5 µM: read-out: % Enzyme activity relative to DMSO (control), c-Src
T3 construct: purchased Reaction Biology Corporation
T3 sequence (P12931 whole entry): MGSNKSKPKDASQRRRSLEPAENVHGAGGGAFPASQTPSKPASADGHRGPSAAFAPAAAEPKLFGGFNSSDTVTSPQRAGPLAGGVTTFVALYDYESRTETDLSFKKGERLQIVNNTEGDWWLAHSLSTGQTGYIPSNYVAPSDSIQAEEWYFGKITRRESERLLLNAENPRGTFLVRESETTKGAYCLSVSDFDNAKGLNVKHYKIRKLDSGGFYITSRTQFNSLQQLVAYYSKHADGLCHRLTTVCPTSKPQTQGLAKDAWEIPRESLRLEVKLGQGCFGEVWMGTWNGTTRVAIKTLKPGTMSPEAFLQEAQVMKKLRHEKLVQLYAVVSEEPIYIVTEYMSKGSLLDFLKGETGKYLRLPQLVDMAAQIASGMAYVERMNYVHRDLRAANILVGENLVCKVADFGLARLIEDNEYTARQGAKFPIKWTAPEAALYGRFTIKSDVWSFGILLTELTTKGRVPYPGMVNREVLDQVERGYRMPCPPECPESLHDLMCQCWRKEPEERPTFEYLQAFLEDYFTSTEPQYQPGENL
Procedure: (§2) Briefly, this assay employs a radiometric detection system to measure kinase phosphoryl transfer activity.
(§3) Test compound was evaluated at a single dose of 5 μM in duplicate mode. […] Reactions were carried out at 10 μM ATP.
(§4) Preliminary screen against AKT, c-Src, ERK1, JaK1 and JaK2 was performed at Reaction Biology Corporation (www.reactionbiology.com, Malvern, Pa.) using the “HotSpot” assay platform. Specific kinase/substrate pairs along with their required cofactors were prepared in reaction buffer; 20 mM Hepes pH 7.5, 10 mM MgCl2, 1 mM EGTA, 0.02% Brij35, 0.02 mg/ml BSA, 0.1 mM Na3VO4, 2 mM DTT, 1% DMSO. The screen was completed in duplicate at a single concentration of 5 μM. The reaction well with the subject compound was treated with a mixture of ATP (Sigma, St. Louis Mo.) and ^33P ATP (Perkin Elmer, Waltham Mass.) to a final concentration of 10 μM. […] Reaction wells were kept at room temperature for 120 minutes, followed by spotting each of the reactions onto P81 ion exchange filter paper (Whatman Inc., Piscataway, N.J.). […] Background was subtracted using control reactions and the kinase activity data was expressed as the percent remaining kinase activity in test samples compared to vehicle (dimethyl sulfoxide) reactions. All IC50 values (table 3) and curve fitting were produced using Prism (GraphPad Software) (FIG. 5).

[9] = target: T4, JAK1 (Homo sapiens, UniProt P23458); assay: HotSpot radiometric kinase assay, JAK1; format: biochemical; details: 5 uM compound, 10 μM ATP, duplicate (Data 1, Data 2); for remaining activity at 5 µM: read-out: % Enzyme activity relative to DMSO (control), JAK1
T4 construct: purchased Reaction Biology Corporation
T4 sequence (P23458 whole entry): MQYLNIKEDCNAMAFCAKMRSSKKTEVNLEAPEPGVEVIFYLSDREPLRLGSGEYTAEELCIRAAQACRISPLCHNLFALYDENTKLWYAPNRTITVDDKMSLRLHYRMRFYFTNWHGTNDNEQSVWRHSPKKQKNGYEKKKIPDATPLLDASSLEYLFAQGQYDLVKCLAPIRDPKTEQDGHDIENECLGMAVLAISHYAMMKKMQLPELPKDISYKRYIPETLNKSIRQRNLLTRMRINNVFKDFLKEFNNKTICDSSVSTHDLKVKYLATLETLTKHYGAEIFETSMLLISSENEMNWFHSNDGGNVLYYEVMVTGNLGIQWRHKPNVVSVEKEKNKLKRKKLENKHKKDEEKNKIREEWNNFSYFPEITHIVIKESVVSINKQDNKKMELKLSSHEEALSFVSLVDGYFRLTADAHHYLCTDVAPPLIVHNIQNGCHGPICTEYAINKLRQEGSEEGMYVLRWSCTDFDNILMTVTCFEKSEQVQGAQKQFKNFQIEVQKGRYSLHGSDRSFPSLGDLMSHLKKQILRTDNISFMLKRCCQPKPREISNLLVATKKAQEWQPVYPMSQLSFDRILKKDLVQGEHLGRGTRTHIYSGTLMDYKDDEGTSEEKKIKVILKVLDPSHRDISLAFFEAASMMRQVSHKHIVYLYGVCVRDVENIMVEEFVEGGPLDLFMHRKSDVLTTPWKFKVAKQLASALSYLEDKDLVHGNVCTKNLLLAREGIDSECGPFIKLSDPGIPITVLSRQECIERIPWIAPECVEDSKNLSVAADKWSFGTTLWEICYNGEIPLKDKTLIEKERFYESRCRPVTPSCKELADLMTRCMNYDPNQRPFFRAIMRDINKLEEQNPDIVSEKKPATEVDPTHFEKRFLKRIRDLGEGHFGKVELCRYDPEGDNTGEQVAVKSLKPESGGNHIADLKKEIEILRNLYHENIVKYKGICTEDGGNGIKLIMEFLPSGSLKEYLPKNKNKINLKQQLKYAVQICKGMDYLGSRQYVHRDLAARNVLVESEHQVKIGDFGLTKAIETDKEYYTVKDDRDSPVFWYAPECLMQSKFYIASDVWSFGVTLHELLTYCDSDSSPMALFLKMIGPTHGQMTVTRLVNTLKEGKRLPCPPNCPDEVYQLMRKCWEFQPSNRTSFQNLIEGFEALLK
Procedure: as §2, §3, §4

[10] = target: T5, JAK2 (Homo sapiens, UniProt O60674); assay: HotSpot radiometric kinase assay, JAK2; format: biochemical; details: 5 uM compound, 10 μM ATP, duplicate (Data 1, Data 2); for remaining activity at 5 µM: read-out: % Enzyme activity relative to DMSO (control), JAK2
T5 construct: purchased Reaction Biology Corporation
T5 sequence (O60674 whole entry): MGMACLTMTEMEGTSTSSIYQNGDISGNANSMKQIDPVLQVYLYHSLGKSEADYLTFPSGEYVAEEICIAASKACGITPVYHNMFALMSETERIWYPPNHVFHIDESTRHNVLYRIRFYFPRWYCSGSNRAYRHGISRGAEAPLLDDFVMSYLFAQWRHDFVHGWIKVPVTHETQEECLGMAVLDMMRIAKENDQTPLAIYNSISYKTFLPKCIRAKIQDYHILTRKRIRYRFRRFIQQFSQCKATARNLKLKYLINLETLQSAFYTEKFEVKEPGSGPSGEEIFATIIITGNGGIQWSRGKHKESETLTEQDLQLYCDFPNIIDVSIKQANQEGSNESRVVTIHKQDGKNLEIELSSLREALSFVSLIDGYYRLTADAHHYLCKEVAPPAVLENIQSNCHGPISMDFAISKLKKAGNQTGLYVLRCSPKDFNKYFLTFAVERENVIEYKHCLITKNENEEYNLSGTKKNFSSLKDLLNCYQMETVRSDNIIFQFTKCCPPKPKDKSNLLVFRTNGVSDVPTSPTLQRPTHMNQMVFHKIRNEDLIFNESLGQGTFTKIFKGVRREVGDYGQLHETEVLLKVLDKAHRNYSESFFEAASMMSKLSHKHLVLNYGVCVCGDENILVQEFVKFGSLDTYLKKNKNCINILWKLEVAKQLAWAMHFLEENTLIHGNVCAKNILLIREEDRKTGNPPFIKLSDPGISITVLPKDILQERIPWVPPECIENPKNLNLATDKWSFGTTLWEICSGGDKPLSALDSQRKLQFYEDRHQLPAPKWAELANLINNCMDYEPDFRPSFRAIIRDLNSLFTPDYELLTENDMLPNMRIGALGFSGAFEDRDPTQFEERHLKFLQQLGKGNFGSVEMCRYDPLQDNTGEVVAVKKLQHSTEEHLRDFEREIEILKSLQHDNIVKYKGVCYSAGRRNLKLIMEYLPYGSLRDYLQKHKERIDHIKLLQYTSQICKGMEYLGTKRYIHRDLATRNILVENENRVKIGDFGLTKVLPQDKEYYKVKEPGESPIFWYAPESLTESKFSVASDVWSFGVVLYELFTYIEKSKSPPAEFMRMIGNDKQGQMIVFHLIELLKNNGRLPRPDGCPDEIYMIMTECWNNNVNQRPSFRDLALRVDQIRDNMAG
Procedure: as §2, §3, §4

[11] = test system: Breast cancer cells (MDA-MB-468); assay: IC50 in breast cancer cells; format: cell-based; details: Homo sapiens, Table 6
[12] = test system: Prostate (DU145); assay: IC50 in prostate cancer cells; format: cell-based; details: Homo sapiens, DU-145; Table 6
[13] = test system: leukemia cancer cells (AML-2); assay: IC50 in leukemia cancer cells; format: cell-based; details: Table 6
[14] = read-out: IC50 (nM) in BTSC 30M
[15] = remaining activity, listed as SH-05-07

SMILES	IC50 [1, 14]	IC50 [2]	IC50 [3]	EC50 [4]	IC50 [4]	toxicity in normal human cells [5]	remaining activity at 5 µM [6]	remaining activity at 5 µM [7]	remaining activity at 5 µM [8]	remaining activity at 5 µM [9]	remaining activity at 5 µM [10]	IC50 [11]	IC50 [12]	IC50 [13]	also measured
CN(CC(=O)N(Cc1ccc(C2CCCCC2)cc1)c1ccc(C(=O)O)cc1)S(=O)(=O)c1c(F)c(F)c(F)c(F)c1F [Compound 31, 4-(N-(4-cyclohexylbenzyl)-2-(2,3,4,5,6-pentafluoro-N-methylphenylsulfonamido)acetamido)benzoic acid]	0.432 ± 0.022 µM	0.531 µM	315 nM	66 to 1140 nM	100 to 3800 nM	minimal toxicity; also recorded: no toxicity	92.1%	111%	50.8%	101%	62%	< 1000 nM	11300 nM	< 1000 nM	IC50 ([1]; read-out: 30M IC50 (μM), Table 4 library screen, alamarBlue): 0.432 µM; IC50 ([1]; read-out: IC50 (μM) 30M, Table 2, BTSC 30M, alamarBlue, 72 hrs): 0.432 ± 0.022 µM; IC50 ([1]; read-out: IC50 BTSC 30M, Table 6, in parallel with other cancer lines): 0.5 µM
CN(CC(=O)N(Cc1ccc(C2CCCCC2)cc1)c1ccc(C(=O)NO)cc1)S(=O)(=O)c1c(F)c(F)c(F)c(F)c1F [Compound 32, 4-(N-(4-cyclohexylbenzyl)-2-(2,3,4,5,6-pentafluoro-N-methylphenylsulfonamido)acetamido)-N-hydroxybenzamide]	1.136 ± 0.009 µM	~1.01 µM	588 nM	66 to 1140 nM	100 to 3800 nM	minimal toxicity	94.6%	110%	58.3%	101%	67.1%	< 1000 nM	15900 nM	< 1000 nM	IC50 ([1]; read-out: 30M IC50 (μM)): 1.14 µM; IC50 ([1]; read-out: IC50 BTSC 30M): 0.971 µM; % Enzyme activity relative to DMSO (control), AKT1 [6, 15]: 92.09%; % Enzyme activity relative to DMSO (control), ERK1 [7, 15]: 106.21%; % Enzyme activity relative to DMSO (control), c-Src [8, 15]: 54.21%; % Enzyme activity relative to DMSO (control), JAK1 [9, 15]: 97.99%; % Enzyme activity relative to DMSO (control), JAK2 [10, 15]: 61.26%
